Marks after values point to notes of the source that are not given here.
Tests used:
[1] = tested on: HCT-116 colon cancer xenografts; experiment: Tumor growth inhibition of HCT-116 colon cancer xenografts in tumor-bearing nude mice (tumor volume, TGI %, RTV, T/C %); format: in vivo, Balb/c Nude mice; conditions: G10-G16 groups, single IP 400 mg/kg
Method in brief: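 Nude mice inoculated with HCT-116 cells (about 3×10^7 cells/mL in serum-free medium). Tumor diameter measured three times weekly and volume computed as V=3/4π(D/2)^3. Activity expressed as TGI (%) and T/C (%) from relative tumor volume Vt/V0, with V0 taken at grouping and dosing start; P<0.05 significant.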

[2] = tested on: ICR mice; experiment: in vivo; conditions: female ICR mice; single-dose ip
Method in brief: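 Female SPF ICR mice received a single ip dose in ethanol/Cremophor EL/saline (5:5:90), with dose lowered after deaths and raised otherwise. MTD defined as dose causing no death, no >10% weight loss versus Day 0 and no significant side effects; daily weights and twice-daily clinical observation over 7-14 days.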

[3] = Method in brief: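 Female SPF Balb/c nude mice bearing subcutaneous HCT-116 xenografts (3×10^6 cells, right hind limb), grouped at 60–150 mm^3, 6 per group; vehicle ethanol/Cremophor EL/saline 5:5:90. Body weight thrice weekly; tumours excised and weighed at sacrifice; Mean±SEM, unpaired t-test, P<0.05.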
[4] = Day 1, G10-G16 groups, single IP 400 mg/kg, Mean±SEM
[5] = Day 2, G10-G16 groups, single IP 400 mg/kg, Mean±SEM
[6] = Day 4, G10-G16 groups, single IP 400 mg/kg, Mean±SEM
[7] = Day 7, G10-G16 groups, single IP 400 mg/kg, Mean±SEM
[8] = Day 9, G10-G16 groups, single IP 400 mg/kg, Mean±SEM
[9] = Day 11, G10-G16 groups, single IP 400 mg/kg, Mean±SEM
[10] = Day 14, G10-G16 groups, single IP 400 mg/kg, Mean±SEM
[11] = Day 16, G10-G16 groups, single IP 400 mg/kg, Mean±SEM
[12] = Day 18, G10-G16 groups, single IP 400 mg/kg, Mean±SEM
[13] = Day 21, G10-G16 groups, single IP 400 mg/kg, Mean±SEM
[14] = Day 23, G10-G16 groups, single IP 400 mg/kg, Mean±SEM
[15] = Day 25, G10-G16 groups, single IP 400 mg/kg, Mean±SEM
[16] = Day 28, G10-G16 groups, single IP 400 mg/kg, Mean±SEM
[17] = Day 30, G10-G16 groups, single IP 400 mg/kg, Mean±SEM

CCCCOC(=O)Nc1nc(=O)n(C2OC(COC(=O)COc3nc(Cl)c(Cl)cc3Cl)C(O)C2(F)F)cc1I (centres unmarked) [Compound G11]
Day 0 (RTV) ([1]; Day 0): 1.00
Tumor volume, Day 0 ([1]; Day 0, Mean±SEM): 71.46 ± 18.69 mm^3
Day 1 (TGI %) ([1]; Day 1): 58.06%
Day 1 (RTV) ([1]; Day 1, Mean±SEM): 1.00 ± 0.13
Tumor volume, Day 1 ([1]; Day 1, Mean±SEM): 75.71 ± 22.24** mm^3
Day 2 (TGI %) ([1]; Day 2): 58.57%
Day 2 (RTV) ([1]; Day 2, Mean±SEM): 1.14 ± 0.16
Tumor volume, Day 2 ([1]; Day 2, Mean±SEM): 91.91 ± 29.38** mm^3
Day 4 (TGI %) ([1]; Day 4): 56.33%
Day 4 (RTV) ([1]; Day 4, Mean±SEM): 1.56 ± 0.24
Tumor volume, Day 4 ([1]; Day 4, Mean±SEM): 129.69 ± 43.49** mm^3
Day 7 (TGI %) ([1]; Day 7): 53.56%
Day 7 (RTV) ([1]; Day 7, Mean±SEM): 2.68 ± 0.29
Tumor volume, Day 7 ([1]; Day 7, Mean±SEM): 200.84 ± 57.86* mm^3
Day 9 (TGI %) ([1]; Day 9): 35.19%
Day 9 (RTV) ([1]; Day 9, Mean±SEM): 5.21 ± 0.68
Tumor volume, Day 9 ([1]; Day 9, Mean±SEM): 382.62 ± 103.38 mm^3
Day 11 (TGI %) ([1]; Day 11): 49.22%
Day 11 (RTV) ([1]; Day 11, Mean±SEM): 6.61 ± 0.62
Tumor volume, Day 11 ([1]; Day 11, Mean±SEM): 495.68 ± 140.53* mm^3
Day 14 (TGI %) ([1]; Day 14): 41.98%
Day 14 (RTV) ([1]; Day 14, Mean±SEM): 12.40 ± 1.29
Tumor volume, Day 14 ([1]; Day 14, Mean±SEM): 835.57 ± 194.90* mm^3
Day 16 (TGI %) ([1]; Day 16): 41.43%
Day 16 (RTV) ([1]; Day 16, Mean±SEM): 16.20 ± 1.72
Tumor volume, Day 16 ([1]; Day 16, Mean±SEM): 1060.78 ± 231.28* mm^3
Day 18 (TGI %) ([1]; Day 18): 36.63%
Day 18 (RTV) ([1]; Day 18, Mean±SEM): 20.33 ± 2.96
Tumor volume, Day 18 ([1]; Day 18, Mean±SEM): 1266.27 ± 242.09* mm^3
Day 21 (TGI %) ([1]; Day 21): 32.98%
Day 21 (RTV) ([1]; Day 21, Mean±SEM): 26.21 ± 3.72
Tumor volume, Day 21 ([1]; Day 21, Mean±SEM): 1638.64 ± 312.92 mm^3
Day 23 (TGI %) ([1]; Day 23): 28.91%
Day 23 (RTV) ([1]; Day 23, Mean±SEM): 27.62 ± 4.39
Tumor volume, Day 23 ([1]; Day 23, Mean±SEM): 1678.97 ± 300.64 mm^3
Day 25 (TGI %) ([1]; Day 25): 28.29%
Day 25 (RTV) ([1]; Day 25, Mean±SEM): 30.73 ± 4.91
Tumor volume, Day 25 ([1]; Day 25, Mean±SEM): 1851.89 ± 322.59 mm^3
Day 28 (TGI %) ([1]; Day 28): 20.94%
Day 28 (RTV) ([1]; Day 28, Mean±SEM): 36.20 ± 6.28
Tumor volume, Day 28 ([1]; Day 28, Mean±SEM): 2126.03 ± 345.51 mm^3
Day 30 (TGI %) ([1]; Day 30): 39.43%
Day 30 (RTV) ([1]; Day 30, Mean±SEM): 56.36 ± 6.99
Tumor volume, Day 30 ([1]; Day 30, Mean±SEM): 1699.56 ± 350.73 mm^3
dose that could be tolerated (maximum tolerated dose, MTD) [2]: 400 mg/kg
Weight change rate, Day 0 ([3]; Day 0, G10-G16 groups, single IP 400 mg/kg): 0.00%
Weight of mice, Day 0 ([3]; Day 0, G10-G16 groups, single IP 400 mg/kg, Mean±SEM): 20.48 ± 0.27 g
Weight change rate, Day 1 [3, 4]: −5.41 ± 1.27 %
Weight of mice, Day 1 [3, 4]: 19.38 ± 0.43 g
Weight change rate, Day 2 [3, 5]: −6.03 ± 0.57 %
Weight of mice, Day 2 [3, 5]: 19.25 ± 0.31 g
Weight change rate, Day 4 [3, 6]: −2.00 ± 0.76%
Weight of mice, Day 4 [3, 6]: 20.07 ± 0.18 g
Weight change rate, Day 7 [3, 7]: −3.58 ± 1.49%
Weight of mice, Day 7 [3, 7]: 19.73 ± 0.17 g
Weight change rate, Day 9 [3, 8]: −0.18 ± 1.13%
Weight of mice, Day 9 [3, 8]: 20.43 ± 0.14 g
Weight change rate, Day 11 [3, 9]: 1.05 ± 1.44%
Weight of mice, Day 11 [3, 9]: 20.68 ± 0.20 g
Weight change rate, Day 14 [3, 10]: −1.81 ± 2.2%
Weight of mice, Day 14 [3, 10]: 20.10 ± 0.40 g
Weight change rate, Day 16 [3, 11]: 0.01 ± 2.83%
Weight of mice, Day 16 [3, 11]: 20.47 ± 0.49 g
Weight change rate, Day 18 [3, 12]: 1.66 ± 3.62%
Weight of mice, Day 18 [3, 12]: 20.80 ± 0.65 g
Weight change rate, Day 21 [3, 13]: −0.53 ± 3.44%
Weight of mice, Day 21 [3, 13]: 20.35 ± 0.59 g
Day 22 Mortality ([3]; Day 22, single IP dose (mg/kg)): 0%
Weight change rate, Day 23 [3, 14]: −1.07 ± 3.55%
Weight of mice, Day 23 [3, 14]: 20.23 ± 0.57 g
Weight change rate, Day 25 [3, 15]: −0.06 ± 3.97%
Weight of mice, Day 25 [3, 15]: 20.43 ± 0.63 g
Weight change rate, Day 28 [3, 16]: −1.11 ± 3.89%
Weight of mice, Day 28 [3, 16]: 20.22 ± 0.61 g
Weight change rate, Day 30 [3, 17]: 3.01 ± 7.70%
Weight of mice, Day 30 [3, 17]: 21.00 ± 1.02 g
clinical symptoms ([3]; after single IP dose, compared with model control group): no significant differences in clinical symptoms
